# Assay results as given in patent publication US10821115B2, “Compounds that inhibit Mcl-1 protein” (priority 2017, dated 2020).
# Read-outs that look alike come from different tables or passages of the source.
# Legend:
# [1] = target: recombinant human Mcl-1 (residues 171-327) / Bim interaction (Homo sapiens (Human), UniProt Q07820); experiment: biochemical; type: binding; details: 0.1 nM Mcl-1(171-327), 0.05 nM biotin-Bim (51-76); read-out: Mcl-1 HTRF IC50
# [2] = test system: human multiple myeloma cell line, OPM-2; experiment: Cell viability assay (OPM-2 10 FBS), CellTiter-Glo; type: cell-based
# Summary of the method: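 Serially diluted test compounds are incubated 16 h with cells (3000/well) in RPMI 1640 supplemented with 10% FBS. Viability is then measured by luminescence and IC50 calculated by 4-parameter logistic fit.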
# [3] = Homo sapiens, OPM-2, 16 h, read-out: OPM-2 10% FBS IC50 IP, OPM-2 cells, 10% FBS, 16 h incubation
# Chain of recombinant human Mcl-1 (residues 171-327) / Bim interaction (Q07820 171-327): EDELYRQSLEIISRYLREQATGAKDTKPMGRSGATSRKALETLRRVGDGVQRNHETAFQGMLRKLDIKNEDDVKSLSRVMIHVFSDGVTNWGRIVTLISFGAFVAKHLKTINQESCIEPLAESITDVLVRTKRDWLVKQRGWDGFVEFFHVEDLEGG
SMILES,IC50 [1],"IC50 [2, 3]","IC50 ([2]; read-out: OPM-2 10% FBS IC50 IP, OPM-2 cells, 10% FBS, 16 h incubation)"
"CCOC(=O)CN1CCN(C[C@]2(OC)/C=C/C[C@H](C)[C@@H](C)S(=O)(=O)NC(=O)c3ccc4c(c3)N(C[C@@H]3CC[C@H]32)C[C@@]2(CCCc3cc(Cl)ccc32)CO4)CC1 [Example 261, ethyl (4-(((1S,3′R,6′R,7′S,8′E,11′S, 12′R)-6-chloro-7′-methoxy-11′,12′-dimethyl-13′,13′-dioxido-15′-oxo-3,4-dihydro-2H-spiro[naphthalene-1,22′-[20]oxa[13]thia[1,14]diazatetracyclo [14.7.2.0~3,6~.0~19,24~]pentacosa[8,16,18,24]tetraen]-7′-yl)methyl)-1-piperazinyl)acetate]",0.153 nM,146 nM,–
"CO[C@@]1(CN2CCC3(CCOCC3)CC2)/C=C/C[C@H](C)[C@@H](C)S(=O)(=O)NC(=O)c2ccc3c(c2)N(C[C@@H]2CC[C@H]21)C[C@@]1(CCCc2cc(Cl)ccc21)CO3 [Example 264, (1S,3′R,6′R,7′S,8′E,11′S,12′R)-6-chloro-7′-methoxy-11′,12′-dimethyl-7′-(3-oxa-9-azaspiro[5.5]undec-9-ylmethyl)-3,4-dihydro-2H,15′H-spiro[naphthalene-1,22′-[20]oxa[13]thia[1,14]diazatetracyclo [14.7.2.0~3,6~.0~19,24~]pentacosa[8,16,18,24]tetraen]-15′-one 13′,13′-dioxide]",0.396 nM,771 nM,–
"CO[C@@]1(CN2CCC3(CCOC3)CC2)/C=C/C[C@H](C)[C@@H](C)S(=O)(=O)NC(=O)c2ccc3c(c2)N(C[C@@H]2CC[C@H]21)C[C@@]1(CCCc2cc(Cl)ccc21)CO3 [Example 265, (1S,3′R,6′R,7′S,8′E,11′S,12′R)-6-chloro-7′-methoxy-11′,12′-dimethyl-7′-(2-oxa-8-azaspiro[4.5]dec-8-ylmethyl)-3,4-dihydro-2H,15′H-spiro[naphthalene-1,22′-[20]oxa[13]thia[1,14]diazatetracyclo [14.7.2.0~3,6~.0~19,24~]pentacosa[8,16,18,24]tetraen]-15′-one 13′,13′-dioxide]",0.423 nM,578 nM,–
"COC(=O)N1CCN(C[C@]2(OC)/C=C/C[C@H](C)[C@@H](C)S(=O)(=O)NC(=O)c3ccc4c(c3)N(C[C@@H]3CC[C@H]32)C[C@@]2(CCCc3cc(Cl)ccc32)CO4)CC1 [Example 266, methyl 4-(((1S,3′R,6′R,7′S,8′E,11′S, 12′R)-6-chloro-7′-methoxy-11′,12′-dimethyl-13′,13′-dioxido-15′-oxo-3,4-dihydro-2H-spiro[naphthalene-1,22′-[20]oxa[13]thia[1,14]diazatetracyclo [14.7.2.0~3,6~.0~19,24~]pentacosa[8,16,18,24]tetraen]-7′-yl)methyl)-1-piperazinecarboxylate]",0.282 nM,723 nM,–
"CO[C@@]1(CN2CCC3(CC2)COC3)/C=C/C[C@H](C)[C@@H](C)S(=O)(=O)NC(=O)c2ccc3c(c2)N(C[C@@H]2CC[C@H]21)C[C@@]1(CCCc2cc(Cl)ccc21)CO3 [Example 267, (1S,3′R,6′R,7′S,8′E,11′S,12′R)-6-chloro-7′-methoxy-11′,12′-dimethyl-7′-(2-oxa-7-azaspiro[3.5]non-7-ylmethyl)-3,4-dihydro-2H,15′H-spiro[naphthalene-1,22′-[20]oxa[13]thia[1,14]diazatetracyclo [14.7.2.0~3,6~.0~19,24~]pentacosa[8,16,18,24]tetraen]-15′-one 13′,13′-dioxide]",0.297 nM,250 nM,–
"CO[C@@]1(CN2CCN(C3(C)COC3)CC2)/C=C/C[C@H](C)[C@@H](C)S(=O)(=O)NC(=O)c2ccc3c(c2)N(C[C@@H]2CC[C@H]21)C[C@@]1(CCCc2cc(Cl)ccc21)CO3 [Example 268, (1S,3′R,6′R,7′S,8′E,11′S,12′R)-6-chloro-7′-methoxy-11′,12′-dimethyl-7′-((4-(3-methyl-3-oxetanyl)-1-piperazinyl)methyl)-3,4-dihydro-2H,15′H-spiro[naphthalene-1,22′-[20]oxa[13]thia[1,14]diazatetracyclo [14.7.2.0~3,6~.0~19,24~]pentacosa[8,16,18,24]tetraen]-15′-one 13′,13′-dioxide]",0.065 nM,72 nM,–
"COC(=O)CN1CCN(C[C@]2(OC)/C=C/C[C@H](C)[C@@H](C)S(=O)(=O)NC(=O)c3ccc4c(c3)N(C[C@@H]3CC[C@H]32)C[C@@]2(CCCc3cc(Cl)ccc32)CO4)CC1 [Example 269, methyl (4-(((1S,3′R,6′R,7′S,8′E,11′S,12′R)-6-chloro-7′-methoxy-11′,12′-dimethyl-13′,13′-dioxido-15′-oxo-3,4-dihydro-2H-spiro[naphthalene-1,22′-[20]oxa[13]thia[1,14]diazatetracyclo[14.7.2.0-3,6˜.0˜19,24˜]pentacosa[8,16,18,24]tetraen]-7′-yl)methyl)-1-piperazinyl)acetate]",0.104 nM,86 nM,–
"CO[C@@]1(CN2CCN(C3(C#N)COC3)CC2)/C=C/C[C@H](C)[C@@H](C)S(=O)(=O)NC(=O)c2ccc3c(c2)N(C[C@@H]2CC[C@H]21)C[C@@]1(CCCc2cc(Cl)ccc21)CO3 [Example 272, 3-(4-(((1S,3′R,6′R,7′S,8′E,11′S,12′R )-6-chloro-7′-methoxy-11′,12′-dimethyl-13′,13′-dioxido-15′-oxo-3,4-dihydro-2H-spiro[naphthalene-1,22′-[20]oxa[13]thia[1,14]diazatetracyclo [14.7.2.0~3,6~.0~19,24~]pentacosa[8,16,18,24]tetraen]-7′-yl)methyl)-1-piperazinyl)-3-oxetanecarbonitrile]",0.144 nM,137 nM,–
CO[C@@]1(CN2CCN3CC[C@H](F)C[C@@H]3C2)/C=C/C[C@H](C)[C@@H](C)S(=O)(=O)NC(=O)c2ccc3c(c2)N(C[C@@H]2CC[C@H]21)C[C@@]1(CCCc2cc(Cl)ccc21)CO3 [Example 274],0.285 nM,–,232 nM
"CO[C@@]1(CN2CC(N3CCS(=O)(=O)CC3)C2)/C=C/C[C@H](C)[C@@H](C)S(=O)(=O)NC(=O)c2ccc3c(c2)N(C[C@@H]2CC[C@H]21)C[C@@]1(CCCc2cc(Cl)ccc21)CO3 [Example 279, (1S,3′R,6′R,7′S,8′E,11′S,12′R)-6-chloro-7′-((3-(1,1-dioxido-4-thiomorpholinyl)-1-azetidinyl)methyl)-7′-methoxy-11′,12′-dimethyl-3,4-dihydro-2H,15′H-spiro[naphthalene-1,22′-[20]oxa[13]thia[1,14]diazatetracyclo [14.7.2.0~3,6~.0~19,24~]pentacosa[8,16,18,24]tetraen]-15′-one 13′,13′-dioxide]",0.084 nM,453 nM,–
"CO[C@@]1(CN2CCN(C3CN(C(C)=O)C3)CC2)/C=C/C[C@H](C)[C@@H](C)S(=O)(=O)NC(=O)c2ccc3c(c2)N(C[C@@H]2CC[C@H]21)C[C@@]1(CCCc2cc(Cl)ccc21)CO3 [Example 280, (1S,3′R,6′R,7′S,8′E,11′S,12′R)-7′-((4-(1-acetyl-3-azetidinyl)-1-piperazinyl)methyl)-6-chloro-7′-methoxy-11′,12′-dimethyl-3,4-dihydro-2H,15′H-spiro[naphthalene-1,22′-[20]oxa[13]thia[1,14]diazatetracyclo [14.7.2.0~3,6~.0~19,24~]pentacosa[8,16,18,24]tetraen]-15′-one 13′,13′-dioxide]",0.052 nM,73 nM,–
"CO[C@@]1(CN2CCN(C3CCC3)CC2)/C=C/C[C@H](C)[C@@H](C)S(=O)(=O)NC(=O)c2ccc3c(c2)N(C[C@@H]2CC[C@H]21)C[C@@]1(CCCc2cc(Cl)ccc21)CO3 [Example 281, (1S,3′R,6′R,7′S,8′E,11′S,12′R)-6-chloro-7′-((4-cyclobutyl-1-piperazinyl)methyl)-7′-methoxy-11′,12′-dimethyl-3,4-dihydro-2H,15′H-spiro[naphthalene-1,22′-[20]oxa[13]thia[1,14]diazatetracyclo [14.7.2.0~3,6~.0~19,24~]pentacosa[8,16,18,24]tetraen]-15′-one 13′,13′-dioxide]",0.181 nM,152 nM,–
"CO[C@@]1(CN2CCN(C3CN(C)C3)CC2)/C=C/C[C@H](C)[C@@H](C)S(=O)(=O)NC(=O)c2ccc3c(c2)N(C[C@@H]2CC[C@H]21)C[C@@]1(CCCc2cc(Cl)ccc21)CO3 [Example 282, (1S,3′R,6′R,7′S,8′E,11′S,12′R)-6-chloro-7′-methoxy-11′,12′-dimethyl-7′-((4-(1-methyl-3-azetidinyl)-1-piperazinyl)methyl)-3,4-dihydro-2H,15′H-spiro[naphthalene-1,22′-[20]oxa[13]thia[1,14]diazatetracyclo [14.7.2.0~3,6~.0~19,24~]pentacosa[8,16,18,24]tetraen]-15′-one 13′,13′-dioxide]",0.118 nM,486 nM,–
"CO[C@@]1(CN2CCC3(CC2)CN(C)C(=O)O3)/C=C/C[C@H](C)[C@@H](C)S(=O)(=O)NC(=O)c2ccc3c(c2)N(C[C@@H]2CC[C@H]21)C[C@@]1(CCCc2cc(Cl)ccc21)CO3 [Example 290, (1S,3′R,6′R,7′S,8′E,11′S,12′R)-6-chloro-7′-methoxy-11′,12′-dimethyl-7′-((3-methyl-2-oxo-1-oxa-3,8-diazaspiro[4.5]dec-8-yl)methyl)-3,4-dihydro-2H,15′H-spiro[naphthalene-1,22′-[20]oxa[13]thia[1,14]diazatetracyclo [14.7.2.0~3,6~.0~19,24~]pentacosa[8,16,18,24]tetraen]-15′-one 13′,13′-dioxide]",0.215 nM,149 nM,–
"CO[C@@]1(CN2CC3(C2)CN(C)C(=O)O3)/C=C/C[C@H](C)[C@@H](C)S(=O)(=O)NC(=O)c2ccc3c(c2)N(C[C@@H]2CC[C@H]21)C[C@@]1(CCCc2cc(Cl)ccc21)CO3 [Example 291, (1S,3′R,6′R,7′S,8′E,11′S,12′R)-6-chloro-7′-methoxy-11′,12′-dimethyl-7′-((7-methyl-6-oxo-5-oxa-2,7-diazaspiro[3.4]oct-2-yl)methyl)-3,4-dihydro-2H,15′H-spiro[naphthalene-1,22′-[20]oxa[13]thia[1,14]diazatetracyclo [14.7.2.0~3,6~.0~19,24~]pentacosa[8,16,18,24]tetraen]-15′-one 13′,13′-dioxide]",0.083 nM,104 nM,–
